Paper PMC7531004, “Discovery of gramicidin A analogues with altered activities by multidimensional screening of a one-bead-one-compound library” (Nature Communications, 2020)
Where a SMILES comes first, the peptide text is derived from it. [ ]: non-standard residue; d: D form. The star is where a group is joined. NHCH2CH2OH = OCCN*; For = O=C*

What was measured:
[1] = system: Streptococcus pyogenes SSI-9; assay: Antibacterial activity assay of bead-derived peptides (three concentrations); assay type: cell-based; set-up: key: +++: inhibition by the 640-fold diluted peptide solution; ++: inhibition by the 160-fold diluted solution; +: inhibition by the 40-fold diluted solution; -: no inhibition; conditions: S. pyogenes, bead-derived peptide solution, three concentrations
Summary of the method: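 Growth inhibition scored visually as precipitated bacteria after 37 °C, 18 h incubation. Streptococcus pyogenes SSI-9 inoculum of 2 × 10^5 CFU in Ca2+/Mg2+-adjusted Mueller Hinton broth plus 5% laked horse blood; peptides tested at three levels: stock, 4-fold and 16-fold DMSO dilutions.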

[2] = H+/Na+ transport assay of bead-derived peptides (one-point); assay type: biochemical; set-up: key: relative activity; mean of two control wells = 1.00; conditions: bead-derived peptide solution, EYPC/EYPG LUVs;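 also: relative to parent gramicidin A activity set to 1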
Summary of the method: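 Miniaturized 96-well format. LUVs with entrapped pyranine (1.0 mM) were exposed to peptide for 30 min at RT. Intensities were expressed relative to full lysis by Triton X-100 and no treatment, with control-well mean = 1.00.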

[3] = system: P388 mouse leukemia cells; conditions: 92 h
Summary of the method: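 Peptide stocks diluted 250× in growth medium; P388 cells 1 × 10^4 cells/mL final; 37 °C, 5% CO2, 92 h. WST-1 + 1-methoxy PMS, 4 h, A415. Output: % viability.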

| SMILES | antibacterial activity [1] | H+/Na+ transport activity normalized against the value of 1 (1.00) [2] | cell viability/% [3] |
| --- | --- | --- | --- |
| CC(C)C[C@@H](NC(=O)[C@H](C)NC(=O)CNC(=O)[C@@H](NC=O)C(C)C)C(=O)N[C@@H](C)C(=O)N[C@H](CC(C)C)C(=O)N[C@H](C(=O)N[C@@H](C(=O)N[C@@H](Cc1c[nH]c2ccccc12)C(=O)N[C@@H](C(=O)N[C@@H](Cc1c[nH]c2ccccc12)C(=O)N[C@@H](C(=O)N[C@@H](Cc1c[nH]c2ccccc12)C(=O)N[C@H](CC(C)C)C(=O)N[C@@H](Cc1c[nH]c2ccccc12)C(=O)NCCO)C(C)C)[C@H](C)O)C(C)C)C(C)C [compound 10542] (For-VGA[dL]A[dL]V[dV]W[dT]W[dV]W[dL]W-NHCH2CH2OH) | - | 1.02 | 100.0% |
| CC(C)C[C@@H](NC(=O)[C@H](C)NC(=O)[C@H](NC(=O)[C@H](C)NC(=O)CNC(=O)[C@@H](NC=O)C(C)C)C(C)C)C(=O)N[C@H](C(=O)N[C@@H](C(=O)N[C@@H](Cc1c[nH]c2ccccc12)C(=O)N[C@H](CC(C)C)C(=O)N[C@@H](Cc1c[nH]c2ccccc12)C(=O)N[C@H](CC(C)C)C(=O)N[C@@H](Cc1c[nH]c2ccccc12)C(=O)N[C@H](CC(C)C)C(=O)N[C@@H](Cc1c[nH]c2ccccc12)C(=O)NCCO)C(C)C)C(C)C [compound 10593] (For-VGA[dV]A[dL]V[dV]W[dL]W[dL]W[dL]W-NHCH2CH2OH) | + | 1.10 | 38.5% |
| CC(C)C[C@@H](NC(=O)[C@H](Cc1c[nH]c2ccccc12)NC(=O)[C@@H](CC(C)C)NC(=O)[C@H](Cc1c[nH]c2ccccc12)NC(=O)[C@H](NC(=O)[C@H](Cc1c[nH]c2ccccc12)NC(=O)[C@H](NC(=O)[C@@H](NC(=O)[C@H](NC(=O)[C@H](C)NC(=O)[C@H](NC(=O)[C@H](C)NC(=O)CNC(=O)[C@@H](NC=O)C(C)C)C(C)C)C(C)C)C(C)C)C(C)C)C(C)C)C(=O)N[C@@H](Cc1c[nH]c2ccccc12)C(=O)NCCO [compound 10649] (For-VGA[dV]A[dV]V[dV]W[dV]W[dL]W[dL]W-NHCH2CH2OH) | ++ | 1.19 | 100.0% |
| CC(C)C[C@@H](NC(=O)[C@H](Cc1c[nH]c2ccccc12)NC(=O)[C@H](NC(=O)[C@H](Cc1c[nH]c2ccccc12)NC(=O)[C@H](NC(=O)[C@@H](NC(=O)[C@H](NC(=O)[C@H](C)NC(=O)[C@H](NC(=O)[C@H](C)NC(=O)CNC(=O)[C@@H](NC=O)C(C)C)[C@H](C)O)C(C)C)C(C)C)C(C)C)C(C)C)C(=O)N[C@@H](Cc1c[nH]c2ccccc12)C(=O)N[C@@H](C(=O)N[C@@H](Cc1c[nH]c2ccccc12)C(=O)NCCO)C(C)C [compound 10653] (For-VGA[dT]A[dV]V[dV]W[dV]W[dL]W[dV]W-NHCH2CH2OH) | - | 1.04 | 44.1% |
| CC(C)C[C@@H](NC(=O)[C@H](Cc1c[nH]c2ccccc12)NC(=O)[C@@H](CC(C)C)NC(=O)[C@H](Cc1c[nH]c2ccccc12)NC(=O)[C@H](NC(=O)[C@H](Cc1c[nH]c2ccccc12)NC(=O)[C@@H](CC(C)C)NC(=O)[C@@H](NC(=O)[C@H](NC(=O)[C@H](C)NC(=O)[C@H](NC(=O)[C@H](C)NC(=O)CNC(=O)[C@@H](NC=O)C(C)C)C(C)C)C(C)C)C(C)C)C(C)C)C(=O)N[C@@H](Cc1c[nH]c2ccccc12)C(=O)NCCO [compound 10661] (For-VGA[dV]A[dV]V[dL]W[dV]W[dL]W[dL]W-NHCH2CH2OH) | + | 1.03 | 39.9% |
| CC(C)C[C@@H](NC(=O)[C@H](Cc1c[nH]c2ccccc12)NC(=O)[C@H](NC(=O)[C@H](Cc1c[nH]c2ccccc12)NC(=O)[C@H](NC(=O)[C@H](Cc1c[nH]c2ccccc12)NC(=O)[C@@H](CC(C)C)NC(=O)[C@@H](NC(=O)[C@H](NC(=O)[C@H](C)NC(=O)[C@H](NC(=O)[C@H](C)NC(=O)CNC(=O)[C@@H](NC=O)C(C)C)C(C)C)C(C)C)C(C)C)C(C)C)C(C)C)C(=O)N[C@@H](Cc1c[nH]c2ccccc12)C(=O)NCCO [compound 10668] (For-VGA[dV]A[dV]V[dL]W[dV]W[dV]W[dL]W-NHCH2CH2OH) | + | 1.09 | 57.1% |
| CNC(=O)C[C@@H](NC(=O)[C@@H](NC(=O)[C@H](NC(=O)[C@H](C)NC(=O)[C@@H](CC(C)C)NC(=O)[C@H](C)NC(=O)CNC(=O)[C@@H](NC=O)C(C)C)C(C)C)C(C)C)C(=O)N[C@@H](Cc1c[nH]c2ccccc12)C(=O)N[C@H](CC(C)C)C(=O)N[C@@H](Cc1c[nH]c2ccccc12)C(=O)N[C@@H](C(=O)N[C@@H](Cc1c[nH]c2ccccc12)C(=O)N[C@H](CC(C)C)C(=O)N[C@@H](Cc1c[nH]c2ccccc12)C(=O)NCCO)C(C)C [compound 10669] (For-VGA[dL]A[dV]V[dD](NHMe)W[dL]W[dV]W[dL]W-NHCH2CH2OH) | - | 1.11 | 55.2% |
| CNC(=O)C[C@@H](NC(=O)[C@H](Cc1c[nH]c2ccccc12)NC(=O)[C@@H](CC(C)C)NC(=O)[C@H](Cc1c[nH]c2ccccc12)NC(=O)[C@H](NC(=O)[C@H](Cc1c[nH]c2ccccc12)NC(=O)[C@H](NC(=O)[C@@H](NC(=O)[C@@H](CC(C)C)NC(=O)[C@H](C)NC(=O)[C@@H](CC(C)C)NC(=O)[C@H](C)NC(=O)CNC(=O)[C@@H](NC=O)C(C)C)C(C)C)C(C)C)C(C)C)C(=O)N[C@@H](Cc1c[nH]c2ccccc12)C(=O)NCCO [compound 10678] (For-VGA[dL]A[dL]V[dV]W[dV]W[dL]W[dD](NHMe)W-NHCH2CH2OH) | - | 1.10 | 76.0% |
| CC(C)C[C@@H](NC(=O)[C@H](Cc1c[nH]c2ccccc12)NC(=O)[C@H](NC(=O)[C@H](Cc1c[nH]c2ccccc12)NC(=O)[C@H](NC(=O)[C@H](Cc1c[nH]c2ccccc12)NC(=O)[C@H](NC(=O)[C@@H](NC(=O)[C@H](NC(=O)[C@H](C)NC(=O)[C@H](NC(=O)[C@H](C)NC(=O)CNC(=O)[C@@H](NC=O)C(C)C)C(C)C)C(C)C)C(C)C)C(C)C)C(C)C)C(C)C)C(=O)N[C@@H](Cc1c[nH]c2ccccc12)C(=O)NCCO [compound 10699] (For-VGA[dV]A[dV]V[dV]W[dV]W[dV]W[dL]W-NHCH2CH2OH) | - | 1.09 | 100.0% |
| CC(C)C[C@@H](NC(=O)[C@H](C)NC(=O)CNC(=O)[C@@H](NC=O)C(C)C)C(=O)N[C@@H](C)C(=O)N[C@H](CC(C)C)C(=O)N[C@H](C(=O)N[C@@H](C(=O)N[C@@H](Cc1c[nH]c2ccccc12)C(=O)N[C@@H](C(=O)N[C@@H](Cc1c[nH]c2ccccc12)C(=O)N[C@H](CC(C)C)C(=O)N[C@@H](Cc1c[nH]c2ccccc12)C(=O)N[C@H](CC(C)C)C(=O)N[C@@H](Cc1c[nH]c2ccccc12)C(=O)NCCO)C(C)C)[C@H](C)O)C(C)C [compound 10710] (For-VGA[dL]A[dL]V[dT]W[dV]W[dL]W[dL]W-NHCH2CH2OH) | - | 1.05 | 100.0% |
